Measurements as given in patent US8183230B2, “Antimicrobial preservatives to achieve multi-dose formulation using beta-cyclodextrins for liquid dosage forms” (priority 2004, dated 2012).

Experiments:
[1] = Equilibrium dialysis method for determining binding constants
Description: In the present invention, the method to determine binding constants utilizes equilibrium dialysis in the development of a multi-use parenteral formulation containing SBE-CD and a preservative. In particular, the method was applied in developing a parenteral formulation comprising the compound of Formula Ia, a cyclodextrin (SBE-CD) and a preservative (meta-cresol). This approach is applicable to compounds other than the compound of Formula Ia in developing parenteral formulations and is within the scope of this invention. […] The significance of this procedure is its ability to measure the binding constant of multiple compounds competing for binding with the cyclodextrin. The experimental dialysis data also provides an easily interpreted representation of binding in the formulation by visualizing the degree of interaction by the equilibrium established following dialysis.
Equilibrium dialysis permits calculation of binding constants by modeling the resultant diffusion rate across a semi-permeable membrane with an equilibrium end point. Equilibrium dialysis is performed by allowing the substrate in a solution containing bound substrate and ligand in a donor compartment of an equilibrium dialysis apparatus (cell) to equilibrate over time with an acceptor compartment. Ono, N., Hirayama, F., Arima, H., Uekama, K. “Determination of Stability Constant of β-Cyclodextrin Complexes Using the Membrane Permeation Technique and the Permeation Behavior of Drug Competing Agent-β-Cyclodextrin Ternary Systems” Eur. J. Pharm. Sci. 1999 9:133-139. The acceptor cell contains no ligand. The membrane is semi-permeable allowing the typically low molecular weight substrates to freely diffuse, while the cyclodextrin (MW=2163) remains in the donor compartment. Sampling from both compartments over time yields a time-concentration profile of substrate in both the donor and acceptor compartments of the dialysis cell.
A mathematical model describing the diffusion rate of drug across the membrane can be derived for systems containing two or more components in solution. The dialysis rate and binding constant for the substrates are obtained by resolving the equation using nonlinear curve fitting software. Depending on the interactions between the components it is possible to describe the competitive binding that occurs in the solution. The equilibrium binding constant is a measure of the relative concentration of meta-cresol bound to SBE-CD according to the chemical equilibrium equation below: S=meta-cresol, L=SBE-CD. S:L indicates the complex formed between meta-cresol and SBE-CD.
The initial experiments established the equilibrium dialysis flux rates for compound of Formula Ia and meta-cresol across the 500 MWCO dialysis membrane. Three different concentrations of compound of Formula Ia were initially loaded into the donor side of the dialysis well. Samples were withdrawn at various time intervals and concentration of free component was measured using HPLC. […] The smoothed line was a fit to the data using the model for a unitary system presented in the discussion. The equilibrium point for all these control experiments was reached after 50% of the total drug was distributed uniformly across the donor and acceptor sides of the well. This asymptotic approach to equilibrium was modeled and the dialysis rates were calculated, Table II.
The primary method of analyzing the data was to perform calculations from equilibrium dialysis data, as described below. In particular, the rate of diffusion across the membrane was calculated using the following equations:
The rate of diffusion from the donor phase is defined by the following relationship: [D]t−[D]eq=([D]0−[D]eq)e^(−2kt) (1)
Rate of diffusion into the Acceptor Phase: [D]eq−[D]t=[D]eqe^(−2kt) (2) wherein
The basis of calculation in the presence of SBE-CD is to assume that complexation occurs only in the donor phase according to the standard complexation reaction:
The value for CyDF may be substituted into equation 8. […]

[2] = Calculated non-sequestered concentrations in formulations; conditions: preferred formulation: 10 mgA/mL compound, 63 mg/mL SBE-CD, 3.3 mg/mL meta-cresol, pH 4.4
Description: These constants were used to calculate the concentration of non-sequestered meta-cresol in the formulations tested for anti-microbial efficacy.
The appearance of a plateau at the higher concentrations is only due to the limitation in the bactericidal efficacy measurement method. As the method consists in evaluating the population not killed by the preservative, when the whole population is dead (i.e. none is detectable any more ˜100%) the figure quoted is of the form: a log reduction greater than a value usually between 3 and 5.
The formulations were analyzed for preservative effectiveness.

[3] = Stability measurements (accelerated stability); conditions: 3 mg/mL meta-cresol, 100 mg/mL SBE-CD, 10 mgA/mL compound of Formula Ia
Procedure: Stability Measurements. Potential lead formulations were evaluated under various accelerated stability conditions in order to assess potency and purity of compound of Formula Ia, preservative content and SBE-CD content. For example, in one accelerated stability study, potential lead formulations were placed in stability ovens to measure short-term thermal stability. […] Purity and potency assays to measure compound of Formula Ia, as well as antimicrobial preservatives and SBE-CD content, were performed using validated HPLC methodology. SBE-CD was assayed using GTP 5984.

[4] = Solubility analysis (solubility method) for binding constant with SBE-CD
Procedure: Traditional solubility methods were performed initially to determine the solubility and binding constants of compound of Formula Ia and preservative with SBE-CD.
Binding was calculated for meta-cresol using solubility analysis. The experiment was performed at different concentrations of compound of Formula Ia to determine if there was any effect from the presence of drug in solution on the meta-cresol binding constant. Meta-cresol solubility was measured in excess (saturated) meta-cresol and the equilibrium binding constant was calculated using the following equation:
[formula] Where St is the total solubility of meta-cresol, s0 is the inherent solubility of meta-cresol, Lt is the total concentration of SBE-CD (ligand) and K11 is the equilibrium binding constant of meta-cresol assuming a 1 to 1 binding stoichiometry.

[5] = binary, approximate ratio 1:1, Compound of Formula Ia 1.0, SBE-CD 1.0 mM
[6] = binary, approximate ratio 1:2, Compound of Formula Ia 0.5, SBE-CD 1.0 mM
[7] = binary, approximate ratio 1:4, Compound of Formula Ia 0.25, SBE-CD 1.0 mM
[8] = ternary, approximate ratio 1:1, Compound of Formula Ia 1.0, Meta-cresol 1.0 mM, SBE-CD 1.0 mM
[9] = ternary, approximate ratio 1:2, Compound of Formula Ia 0.5, Meta-cresol 0.5 mM, SBE-CD 1.0 mM
[10] = ternary, approximate ratio 1:4, Compound of Formula Ia 0.25, Meta-cresol 0.25 mM, SBE-CD 1.0 mM

drug binding constant greater than preservative ([1]; binary systems with SBE-CD): 13 fold
Keq [1, 5]: 740 M⁻¹
k [1, 5]: 0.015 h⁻¹
Keq [1, 6]: 1092 M⁻¹
k [1, 6]: 0.013 h⁻¹
Keq [1, 7]: 1444 M⁻¹
k [1, 7]: 0.012 h⁻¹
binding constant with SBE-CD ([1]; equilibrium dialysis method, binary systems, drug ±352 M−1, n=3, preservative ±7 M−1): 1092 M⁻¹
Keq [1, 8]: 690 M⁻¹
k [1, 8]: 0.018 h⁻¹
Keq [1, 9]: 720 M⁻¹
k [1, 9]: 0.013 h⁻¹
Keq [1, 10]: 520 M⁻¹
k [1, 10]: 0.011 h⁻¹
calculated non-sequestered concentration [2]: 1.4 mg/mL
CONTENT (% INTENT) ([3]; 5° C., 1 week, Amber-Treated): 97 % INTENT
CONTENT (% INTENT) ([3]; 5° C., 1 week, Amber-Untreated): 96 % INTENT
CONTENT (% INTENT) ([3]; 5° C., 3 weeks, Amber-Treated): 96 % INTENT
CONTENT (% INTENT) ([3]; 5° C., 3 weeks, Amber-Untreated): 95 % INTENT
CONTENT (% INTENT) ([3]; 5° C., 6 weeks, Amber-Treated): 95 % INTENT
CONTENT (% INTENT) ([3]; 5° C., 6 weeks, Amber-Untreated): 94 % INTENT
CONTENT (% INTENT) ([3]; 5° C., 12 weeks, Amber-Treated): 94 % INTENT
CONTENT (% INTENT) ([3]; 5° C., 12 weeks, Amber-Untreated): 94 % INTENT
CONTENT (% INTENT) ([3]; 50° C., 1 week, Amber-Treated): 95 % INTENT
CONTENT (% INTENT) ([3]; 50° C., 1 week, Amber-Untreated): 96 % INTENT
CONTENT (% INTENT) ([3]; 50° C., 3 weeks, Amber-Treated): 95 % INTENT
CONTENT (% INTENT) ([3]; 50° C., 3 weeks, Amber-Untreated): 93 % INTENT
CONTENT (% INTENT) ([3]; 50° C., 6 weeks, Amber-Treated): 96 % INTENT
CONTENT (% INTENT) ([3]; 50° C., 6 weeks, Amber-Untreated): 94 % INTENT
CONTENT (% INTENT) ([3]; 50° C., 12 weeks, Amber-Treated): 95 % INTENT
CONTENT (% INTENT) ([3]; 70° C., 1 week, Amber-Treated): 94 % INTENT
CONTENT (% INTENT) ([3]; 70° C., 1 week, Amber-Untreated): 94 % INTENT
CONTENT (% INTENT) ([3]; 70° C., 2 weeks, Amber-Treated): 94 % INTENT
CONTENT (% INTENT) ([3]; 70° C., 2 weeks, Amber-Untreated): 94 % INTENT
CONTENT (% INTENT) ([3]; 70° C., 3 weeks, Amber-Treated): 92 % INTENT
CONTENT (% INTENT) ([3]; 70° C., 3 weeks, Amber-Untreated): 94 % INTENT
CONTENT (% INTENT) ([3]; 70° C., 6 weeks, Amber-Treated): 92 % INTENT
CONTENT (% INTENT) ([3]; 70° C., 6 weeks, Amber-Untreated): 93 % INTENT
CONTENT (% INTENT) ([3]; 70° C., 12 weeks, Amber-Treated): 93 % INTENT
CONTENT (% INTENT) ([3]; 70° C., 12 weeks, Amber-Untreated): 93 % INTENT
CONTENT (% INTENT) ([3]; ICH Photostability, 1X ICH UV/FI, Amber-Treated): 92 % INTENT
CONTENT (% INTENT) ([3]; ICH Photostability, 1X ICH UV/FI, Amber-Untreated): 93 % INTENT
loss / potency decrease ([3]; after 12 weeks at 70° C., relative to 1 week at 5° C.): 3%
binding constant with SBE-CD [4]: 1040 M⁻¹
binding constant ([4]; pH 4.4): 1040 M⁻¹
SMILES: COc1ccc(C(C)(C)C)cc1CN[C@H]1C2CCN(CC2)[C@H]1C(c1ccccc1)c1ccccc1 [compound of Formula Ia]
